Laboratory results taken from patent US20210164051A1, “METHODS OF DETECTION AND ANALYSIS OF NUCLEIC ACID IN NEURAL-DERIVED EXOSOMES” (priority 2019, published 2021).
Read-outs that look alike come from different tables or passages of the source.

Legend:
[1] = tested on: GFAP+ astroglia
[2] = tested on: IbA1+ microglia; settings: for IbA1+ Density / IbA1+ microglia Size: median ± SEM, n = 8
[3] = tested on: CD68+ microglia
[4] = tested on: tau AT8+ NFT; settings: averaged across 7 cortical regions
[5] = tested on: anterior horn motor neurons
[6] = tested on: TDP-43+ anterior horn motor neurons
[7] = tested on: myelinated axon fibers; settings: 7 of 16 vervets exposed to BMAA; NS, p=0.0956
[8] = lateral corticospinal tract, stimulated by BMAA dosing
[9] = vervet spinal cord, 210 mg/kg/day oral, 140 days, median ± SEM
[10] = anterior horn, 210 mg/kg/day, 140 days, median ± SEM
[11] = lateral corticospinal tracts, Cervical Segment
[12] = lateral corticospinal tracts, Lumbar Segment

N[C@@H](CO)C(=O)O [L-serine]
effect of L-serine coadministration on median concentrations of BMAA in spinal cord (any fraction of the vervet spinal cord): did not significantly reduce | reduction of total number of GFAP+ astroglia by coadministration of L-serine ([1]; anterior horn of the lumbar spinal cord, BMAA + L-serine both 210 mg/kg/day, p=0.008): 21% | reduction of total area of GFAP+ astroglia by coadministration of L-serine ([1]; anterior horn of the lumbar spinal cord, automated image analysis, p=0.007): 20% | attenuation of mean Iba1+ microglia distribution by coadministration of L-serine [2, 8]: 32% | attenuation of CD68+ microglial expression by coadministration of L-serine [3, 8]: 24% | effect of L-serine coadministration on CD68+ microglial nodule numbers, size and expression intensity ([3]; p=0.01, n=8): reduced | attenuation of BMAA-induced tau NFT density by coadministration of L-serine [4]: 40%

CNC[C@H](N)C(=O)O [BMAA, β-N-methylamino-L-alanine]
median total BMAA concentration in spinal cord tissues (BMAA and BMAA L-serine dosing cohorts pooled, ±13.7 SE): 61.4 µg/g | Free BMAA per gram of spinal cord tissues [9]: 8.9 ± 3.9 ^NS μg/g | Hydrolyzed Protein Pellet BMAA per gram of spinal cord tissues [9]: 0.5 ± 0.3 ^NS μg/g | Hydrolyzed Supernatant BMAA per gram of spinal cord tissues [9]: 34.0 ± 20.5 ^NS μg/g | decrease of anterior horn neuronal numbers ([5]; BMAA 210 mg/kg/day, 140 days, p=0.0016): 23% | greater frequency of eosinophilic neurons vs rice flour controls ([5]; cervical spinal cord anterior horns, BMAA 210 mg/kg/day, 140 days, p=0.024): 4.3 fold | reduction in size of eosinophilic lower motor neurons ([5]; cervical spinal cord anterior horns, p<0.0001): 40% | vervets with cytoplasmic mislocalization of FUS protein ([6]; 2 of the 16 BMAA-dosed vervets): 12.5% | vervets with neurons positive for TDP-43 cytoplasmic inclusion bodies ([6]; 12 of 16 vervets fed BMAA): 75% | number of TDP-43+ motor neurons per region of interest, All Spinal Cord Segments [6, 10]: 4.5 ± 1.7 | number of TDP-43+ motor neurons per region of interest, Cervical Segment [6, 10]: 3.0 ± 1.9 | number of TDP-43+ motor neurons per region of interest, Lumbar Segment [6, 10]: 3.0 ± 3.1 | mean density and distribution of TDP-43+ inclusions vs controls ([6]; toxin-dosed vervets, p=0.024): 5 fold | increase of median numbers of GFAP+ astroglia ([1]; anterior horn of the lumbar spinal cord, p=0.008, n=8): 44% | increase of density of GFAP+ activated astroglia ([1]; anterior horns of the lumbar spinal cord, p=0.008): 1.4 fold | density and total area covered by IbA1+ microglia, cervical compared to lumbar segments ([2]; BMAA-dosed primates, p=0.0039): 1.5 fold | IbA1+ Density [2, 11]: 1831.8 ± 206.9 Ct | IbA1+ microglia Size [2, 11]: 15.4 ± 1.7^NS Px | IbA1+ Density [2, 12]: 1213.7 ± 151.5^NS Ct | IbA1+ microglia Size [2, 12]: 13.9 ± 1.9^NS Px | increase of total area covered by IbA1+ microglia vs rice flour controls ([2]; lateral corticospinal tracts, cervical spinal cord, p=0.011, n=8): 1.6 fold | increase of median density of IbA1+ microglia vs rice flour controls ([2]; lateral corticospinal tracts, cervical spinal cord, p=0.048, n=8): 1.7 fold | effect on the size of Iba1+ microglia ([2]; lateral corticospinal tracts, NS, p=0.260, n=8): did not have a significant effect | vervets with loss of myelinated axon fiber staining in the lateral corticospinal tracts [7]: 44% | increase of median cortical tau AT8+ NFT density ([4]; p<0.0001, n=8): 3.1 fold
